Each structure is given as a SMILES string. Where two headings read alike, the source gives them in different places.

The nature of data set [1]: Plasma stability, human plasma. The class given is in vitro ADME. To be noted: human, plasma. The protocol: Then, 37.8 μL of stock solution was added to 1400 μL of human plasma, maintained at 37°C. Aliquots (50 μL) withdrawn at 0, 1, 4, 8, and 24 h were analyzed by HPLC. […] The supernatant was transferred to an autosampler vial and 1 μL was injected onto LC-MS system. The samples were analyzed with an Agilent 1260 HPLC (Agilent Technologies) coupled to ESI-TOF Agilent 6530 (Agilent Technologies) with Agilent Jet Stream Technology. Samples were separated on a Waters ACQUITY UPLC CSH Phenyl-Hexyl (100 × 2.1, 130 Å, 1.7 μm) at a flow rate 0.3 ml/min. […] The mass spectrometry instrument was operated in a negative ion mode with a voltage of +3.00 kV applied to the capillary. The temperature, the flow rate of the nitrogen drying gas, the pressure of the nitrogen nebulizing gas, and the flow rate of the sheath gas were set at 325°C, 10 l/min, 40 psi, 390°C, and 11 l/min, respectively. Results are represented as a percentage of a compound remaining in spiked human plasma.

The test system of a further data set is HepG2 cells. Put plainly: Mitotoxicity, XTT viability in glucose vs galactose medium. The settings on record: Homo sapiens, HepG2, 24 h. The protocol: (A) Hepatotoxicity provoked by compound 4 was assessed after 72 h incubation of HepG2 cells in low glucose medium (5 mM) in the presence of compound 4 (0.25–100 μM). (B) Mitochondrial toxicity was determined after 24 h incubation of HepG2 cells in either high glucose medium (25 mM) or galactose medium (10 mM) in the presence of compound 4 (2.5–150 μM). Cell viabilities were recorded in triplicates in three independent experiments and expressed as percentage of vehicle control ± SD and IC50 values were determined by GraphPad Prism software using following equation: Y = Bottom + (Top–Bottom)/(1 + 10ˆ((LogIC50-X)^∗HillSlope)), where IC50 is the concentration of compound 4 that inhibits cell viability half way between Bottom and Top plateaus, X is compound 4 concentration and HillSlope describes the steepness of the family of curves. […] (C) Concentration-dependent effect on ROS level. HepG2 cells were treated with compound 4 (0.25–100 μM) for 72 h, and then the intracellular level of total ROS in relative fluorescence units (RFU) was detected. The data are presented as the mean ± SD for at least three independent experiments and each experiment was carried out in triplicate. Final concentration of DMSO in samples was 1%. […] Single asterisks (^∗) indicate a significant difference (P < 0.05) compared to 1% DMSO control (one-way ANOVA with Dunnett’s post-test).
HepG2 cells (ATCC®, United Kingdom) were grown in complete Minimal Essential Medium (EMEM) (5.5 mM glucose) medium, supplemented with 10% (v/v) fetal calf serum, 200 μg/mL of streptomycin, 200 U/mL of penicillin G and 4 mM glutamine. They were cultured under a humidified atmosphere containing 5% CO2 at 37°C.
The cytotoxicity of the tested compounds was assessed with use of XTT cell proliferation kit II (Roche Diagnostics GmbH, Mannheim, Germany) according to the manufacturer’s instructions. Briefly HepG2 cells were seeded in a 96-well plate at a density of 22,000 cells per well. After 24 h, the tested neurosteroids in a concentration range from 0.5 to 200 μM were added to the culture media and incubated for 72 h before the XTT dye was added. Mitochondrial toxicity was assessed in HepG2 cells using glucose and galactose conditioned media and XTT assay as a read out for cell viability. In brief, cells were seeded onto 96 well, clear bottom tissue culture plates at a density of 22,000 cells/well and left overnight to attach. Six hours prior to the neurosteroids treatment the media was replaced with 100 μL DMEM media containing either glucose (25 mM glucose; 1 mM pyruvate; 2 mM glutamine, 10% FBS) or galactose (10 mM galactose, 1 mM pyruvate, 6 mM glutamine, 10% FBS). After that, the tested neurosteroids in a concentration range from 0.5 to 200 μM were added in the fresh appropriate assay medium (glucose or galactose) and incubated for 24 h before the XTT dye was added. The XTT absorbance was recorded at 495 nm after 1 h incubation with the dye. Compounds were dissolved in DMSO to produce the stock solutions at the concentration of 10 mM, with exception of PAG, 1, 6 (5 mM), and 11 (2.5 mM). Results were expressed as percentages of change in viability compared to appropriate DMSO control. IC50 values were determined by GraphPad Prism version 5.00 for Windows (GraphPad Software, La Jolla, CA, United States). All experiments were done in triplicates in three independent experiments to check the reproducibility.
On the technique in general: Tetrazolium dyes change colour on reduction, which living cells bring about.

One may read the amount remaining as what is left of the initial amount, in per cent. For orientation: IC50 means the point on the concentration scale where inhibition reaches its midpoint. The compound `C[C@@]12CCC[C@H]1[C@@H]1CC[C@@H]3C[C@H](NC(=O)[C@@H](N)CC(=O)O)CC[C@]3(C)[C@H]1CC2` [Compound 6, (S)-3-amino-4-(((3R,5R,8S,9S,10S,13S,14S)-10,13-dimethylhexadecahydro-1H-cyclopenta[a]phenanthren-3-yl)amino)-4-oxobutanoic acid] displayed a share remaining at 8 h, 42.1 μg/mL in data set [1] of 100%. Moreover, the IC50 with HepG2 cells (read-out: Mitotoxicity IC50, 10 mM galactose) was over 200 µM; with HepG2 cells (read-out: Mitotoxicity IC50, 25 mM glucose) it was over 200 µM.
